Data from PubChem BioAssay AID330 (DTP/NCI, 2004).
Where “and” joins values, the source holds several entries; their conditions need not be identical. Identical values can stand only once. Toxic doses and inconclusive results are not listed.

Test system: P388 leukemia ip, CD2F1 mice, survival T/C
Experiment: NCI In Vivo Anticancer Drug Screen. Data for tumor model P388 Leukemia (intraperitoneal) in CD2F1 (CDF1) mice
Settings: endpoint: median survival time, higher = longer survival
Method in brief: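 Mice carrying the transplanted tumor received test compound or vehicle. Survival was recorded in each group, and the value is the treated-group measurement divided by that of the vehicle-treated control group.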

[1] = dose: 50.0 mg/kg/injection, schedule: Q01DX005 (ip), vehicle: saline with Tween-80
[2] = dose: 50.0 mg/kg/injection, schedule: Q04DX003 (ip), vehicle: saline with Tween-80
[3] = dose: 50.0 mg/kg/injection, schedule: Q01DX005 (ip), vehicle: Klucel (hydroxypropylcellulose) (HPC)
[4] = dose: 100.0 mg/kg/injection, schedule: Q01DX005 (ip), vehicle: Klucel (hydroxypropylcellulose) (HPC)
[5] = dose: 200.0 mg/kg/injection, schedule: Q01DX005 (ip), vehicle: Klucel (hydroxypropylcellulose) (HPC)
[6] = dose: 50.0 mg/kg/injection, schedule: Q01DX009 (ip), vehicle: Klucel (hydroxypropylcellulose) (HPC)
[7] = dose: 100.0 mg/kg/injection, schedule: Q01DX009 (ip), vehicle: Klucel (hydroxypropylcellulose) (HPC)
[8] = dose: 200.0 mg/kg/injection, schedule: Q01DX009 (ip), vehicle: Klucel (hydroxypropylcellulose) (HPC)
[9] = dose: 50.0 mg/kg/injection, schedule: Q01DX009 (ip), vehicle: saline with Tween-80
[10] = dose: 100.0 mg/kg/injection, schedule: Q01DX009 (ip), vehicle: saline with Tween-80

## C=Cn1c([N+](=O)[O-])cnc1/C=C/c1ccc(C(=O)N(CC)CC)cc1
dose: 100.0 mg/kg/injection, schedule: Q04DX002 (ip), vehicle: saline with Tween-80
  T/C: 99 % of control
dose: 200.0 mg/kg/injection, schedule: Q04DX002 (ip), vehicle: saline with Tween-80
  T/C: 100 % of control
dose: 400.0 mg/kg/injection, schedule: Q04DX002 (ip), vehicle: saline with Tween-80
  T/C: 100 % of control

## CC(C)=CCCC(=O)C(c1nc2n(c1O)C(=N)N=N2)c1nc2n(c1O)C(=N)N=N2 (stereo not drawn)
dose: 60.0 mg/kg/injection, schedule: Q01DX005 (ip), vehicle: saline
  T/C: 95 % of control
dose: 120.0 mg/kg/injection, schedule: Q01DX005 (ip), vehicle: saline
  T/C: 97 % of control
dose: 240.0 mg/kg/injection, schedule: Q01DX005 (ip), vehicle: saline
  T/C: 97 % of control

## Cc1ccc2nc(N/N=C(\c3ccccc3)c3ccccn3)cc(C)c2c1
[1]
  T/C: 100 % of control
dose: 100.0 mg/kg/injection, schedule: Q01DX005 (ip), vehicle: saline with Tween-80
  T/C: 112 % of control

## NC[CH2][Sn]([c]1ccccc1)([CH]1CCCCC1)[CH]1CCCCC1
dose: 3.75 mg/kg/injection, schedule: Q01DX005 (ip), vehicle: saline with Tween-80
  T/C: 100 % of control
dose: 7.5 mg/kg/injection, schedule: Q01DX005 (ip), vehicle: saline with Tween-80
  T/C: 93 % of control
dose: 15.0 mg/kg/injection, schedule: Q01DX005 (ip), vehicle: saline with Tween-80
  T/C: 99 % of control
dose: 60.0 mg/kg/injection, schedule: Q01DX005 (ip), vehicle: saline with Tween-80
  T/C: 92 % of control

## O=c1cc(CCl)[nH]nc1CCl
dose: 14.5 mg/kg/injection, schedule: Q04DX003 (ip), vehicle: saline with Tween-80
  T/C: 160 % of control
dose: 33.0 mg/kg/injection, schedule: Q04DX003 (ip), vehicle: saline with Tween-80
  T/C: 158 % of control
[2]
  T/C: 173 % of control

## OC1COC(O)(CNCCc2c[nH]c3ccc(OCc4ccccc4)cc23)C(O)C1O (stereo not drawn)
dose: 60.0 mg/kg/injection, schedule: Q01DX005 (ip), vehicle: Klucel (hydroxypropylcellulose) (HPC)
  T/C: 101 % of control
dose: 120.0 mg/kg/injection, schedule: Q01DX005 (ip), vehicle: Klucel (hydroxypropylcellulose) (HPC)
  T/C: 99 % of control
dose: 240.0 mg/kg/injection, schedule: Q01DX005 (ip), vehicle: Klucel (hydroxypropylcellulose) (HPC)
  T/C: 87 % of control

## S=c1ncc2[nH]cnc2[nH]1
[3]
  T/C: 99 % of control
[4]
  T/C: 105 % of control
[5]
  T/C: 105 % of control

## Sc1cc2c(c3ccccc13)Nc1ccccc1S2
[6]
  T/C: 92 % of control
[7]
  T/C: 97 % of control
[8]
  T/C: 97 % of control

## CC1CN1P1(N2CC2C)=NP(N2CC2C)(N2CC2C)=NP(N2CC2C)(N2CC2C)=N1 (stereo not drawn)
dose: 12.5 mg/kg/injection, schedule: Q04DX003 (ip), vehicle: saline
  T/C: 100 % of control
dose: 25.0 mg/kg/injection, schedule: Q01DX009 (ip), vehicle: saline
  T/C: 154 % of control
dose: 25.0 mg/kg/injection, schedule: Q04DX003 (ip), vehicle: saline
  T/C: 112 % of control
dose: 33.0 mg/kg/injection, schedule: Q01DX009 (ip), vehicle: saline with Tween-80
  T/C: 154 % of control
[9]
  T/C: 170 % of control and 193 % of control
dose: 50.0 mg/kg/injection, schedule: Q01DX009 (ip), vehicle: saline
  T/C: 172 % of control
dose: 66.0 mg/kg/injection, schedule: Q04DX003 (ip), vehicle: saline
  T/C: 154 % of control
dose: 75.0 mg/kg/injection, schedule: Q01DX009 (ip), vehicle: saline with Tween-80
  T/C: 218 % of control
[10]
  T/C: 102 % of control
dose: 100.0 mg/kg/injection, schedule: Q01DX009 (ip), vehicle: saline
  T/C: 90 % of control
dose: 100.0 mg/kg/injection, schedule: Q04DX003 (ip), vehicle: saline
  T/C: 181 % of control

## CC[N+]1=C(C2=NCCc3ccccc32)c2ccccc2CC1
dose: 12.5 mg/kg/injection, schedule: Q01DX005 (ip), vehicle: saline
  T/C: 104 % of control
dose: 25.0 mg/kg/injection, schedule: Q01DX005 (ip), vehicle: saline
  T/C: 98 % of control
[1]
  T/C: 92 % of control
dose: 50.0 mg/kg/injection, schedule: Q01DX005 (ip), vehicle: saline
  T/C: 100 % of control

## Cc1cccnc1Br
dose: 25.0 mg/kg/injection, schedule: Q01DX009 (ip), vehicle: water
  T/C: 96 % of control
dose: 200.0 mg/kg/injection, schedule: Q01DX009 (ip), vehicle: water
  T/C: 89 % of control

## Cc1c([C@H](C)[C@@H]2NC[C@@H](C)C[C@H]2O)ccc2c1C[C@H]1[C@H]2CC=C2C[C@@H](O)CC[C@@]21C
dose: 0.75 mg/kg/injection, schedule: Q01DX009 (ip), vehicle: saline with Tween-80
  T/C: 108 % of control
dose: 1.5 mg/kg/injection, schedule: Q01DX009 (ip), vehicle: saline with Tween-80
  T/C: 115 % of control
dose: 3.0 mg/kg/injection, schedule: Q01DX009 (ip), vehicle: saline with Tween-80
  T/C: 101 % of control and 113 % of control

## CC1=CC=C(C(=O)C(Br)C(Br)c2ccccc2)C1 (stereo not drawn)
dose: 6.25 mg/kg/injection, schedule: Q01DX009 (ip), vehicle: Klucel (hydroxypropylcellulose) (HPC)
  T/C: 92 % of control
dose: 12.5 mg/kg/injection, schedule: Q01DX009 (ip), vehicle: Klucel (hydroxypropylcellulose) (HPC)
  T/C: 92 % of control
dose: 25.0 mg/kg/injection, schedule: Q01DX009 (ip), vehicle: Klucel (hydroxypropylcellulose) (HPC)
  T/C: 89 % of control

## C1SSCSSS1
[9]
  T/C: 115 % of control
[10]
  T/C: 117 % of control
dose: 200.0 mg/kg/injection, schedule: Q01DX009 (ip), vehicle: saline with Tween-80
  T/C: 111 % of control

## CC(=O)[C@]1(O)Cc2c(O)c3c(c(O)c2C(OC2CC(N=[N+]=[N-])C(O)[C@@H](CN=[N+]=[N-])O2)C1)C(=O)c1c(O)cccc1C3=O (stereo partly drawn)
dose: 3.13 mg/kg/injection, schedule: Q04DX003 (ip), vehicle: saline with Tween-80
  T/C: 93 % of control
dose: 6.25 mg/kg/injection, schedule: Q04DX003 (ip), vehicle: saline with Tween-80
  T/C: 93 % of control
dose: 12.5 mg/kg/injection, schedule: Q04DX003 (ip), vehicle: saline with Tween-80
  T/C: 96 % of control
dose: 25.0 mg/kg/injection, schedule: Q04DX003 (ip), vehicle: saline with Tween-80
  T/C: 96 % of control
[2]
  T/C: 91 % of control
dose: 100.0 mg/kg/injection, schedule: Q04DX003 (ip), vehicle: saline with Tween-80
  T/C: 105 % of control

## NC(=O)c1[nH]c(N=Nc2ccc(Cl)cc2)nc1N
[6]
  T/C: 92 % of control
[7]
  T/C: 100 % of control
[8]
  T/C: 89 % of control

## Cc1cn(C2OC(CO)C(O)C2O)c(=O)nc1N (stereo not drawn)
dose: 25.0 mg/kg/injection, schedule: Q01DX005 (ip), vehicle: water
  T/C: 104 % of control
dose: 50.0 mg/kg/injection, schedule: Q01DX005 (ip), vehicle: water
  T/C: 101 % of control
dose: 100.0 mg/kg/injection, schedule: Q01DX005 (ip), vehicle: water
  T/C: 100 % of control
dose: 200.0 mg/kg/injection, schedule: Q01DX005 (ip), vehicle: water
  T/C: 96 % of control

## CCOC(=O)c1ccc2ccc(OC)c(OC)c2c1
dose: 12.5 mg/kg/injection, schedule: Q01DX009 (ip), vehicle: other
  T/C: 95 % of control
dose: 25.0 mg/kg/injection, schedule: Q01DX009 (ip), vehicle: other
  T/C: 97 % of control
dose: 50.0 mg/kg/injection, schedule: Q01DX009 (ip), vehicle: other
  T/C: 104 % of control
dose: 100.0 mg/kg/injection, schedule: Q01DX009 (ip), vehicle: other
  T/C: 95 % of control
dose: 200.0 mg/kg/injection, schedule: Q01DX009 (ip), vehicle: other
  T/C: 104 % of control

## CN=C(NC#N)NCCSCc1ccc2ccccc2n1
dose: 50.0 mg/kg/injection, schedule: Q01DX005 (ip), vehicle: distilled water + Tween-80 + alcohol
  T/C: 115 % of control
dose: 100.0 mg/kg/injection, schedule: Q01DX005 (ip), vehicle: distilled water + Tween-80 + alcohol
  T/C: 94 % of control

## CCOC(=O)C1=C(C)NC(=O)NC1c1cccc(OC)c1O (stereo not drawn)
[3]
  T/C: 94 % of control
[4]
  T/C: 91 % of control
[5]
  T/C: 97 % of control
